Consider 19 compounds from patent US9023851B2 (Merck Patent GmbH, priority 2010, dated 2015).

The target in one test is T1, Syk (Homo sapiens, UniProt P43405).
T1 construct: purchased BPS Bioscience, CA, USA
Nature of the test: Syk enzyme assay (flash plate / Caliper mobility shift). The test is classed as biochemical. In a few lines:
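Flashplate format used 2.5 nM SYK, 400 nM biotinylated peptide and 10 µM ATP with 33P tracer, pH 7.5, 1 h at 30 °C, read by radioactivity. Caliper format ran 90 min at 25 °C in HEPES pH 7.5, reading percent peptide conversion by mobility shift. IC50s came from dose-response curves.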

The test system of the next test is Ramos cells. Nature of the test: BCR crosslinking-induced BLNK phosphorylation (BLNK cell assay). The following applies: Homo sapiens. The test is classed as cell-based. As for the experimental part: 1. BCR Crosslinking-Induced BLNK Phosphorylation
Ramos cells incubated overnight in IMDM medium containing 5% FCS were resuspended in IMDM medium without serum (3.3×10^6 cells/ml). 90 μl of cell suspension (300′000 cells) were incubated with 10 μl of SYK inhibitors (in 3% DMSO) for 20 minutes at 37° C., in 96 well plates. After preincubation with inhibitors, cells were activated with 10 μg/ml of goat antihuman anti-IgM for 10 minutes at 37° C. After stimulation, cells were fixed by addition of 80 μl of 4% paraformaldehyde followed by a 10 minutes incubation at RT and […] in 0.1% Triton X-100 in PBS. BLNK phosphorylation was detected by flow cytometry after staining of the cells with anti-BLNK-pY84-PE antibodies from BD pharmingen, for 45 minutes at RT. […]

A further test has as its target T2, Src (Homo sapiens, UniProt P12931).
T2 construct: purchased Carna Bioscience, Kobe, Japan
Nature of the test: cSrc enzymatic assay (Caliper LifeSciences technology). The test is classed as biochemical. The protocol: Enzymatic Assays Using the Caliper LifeSciences Technology
The assays described here are performed on the Caliper Life Sciences LC3000 system This technology provides data on enzyme activity via measurement of the relative amounts of phosphorylated or unphosphorylated fluorescently labelled substrate peptide at the end of an enzymatic reaction. These different states of peptide are resolved by applying a potential difference across the sample. The presence of the charged phosphate group on the product (as opposed to the substrate) causes a different peptide mobility between the two peptides. This is visualized by excitation of the fluorescent label on the substrate and product peptides and represented as peaks within the analysis software.
In order to measure inhibitor activity of kinase inhibitors on this technology, a TTP Mosquito liquid handling instrument is used to place 0.25 ul of the appropriate concentration of inhibitor in 100% DMSO (for a dose response curve calculation) into each well of a 384-well plate. To this reaction components are added to a final volume of 25 ul. The table below indicates the sequences and concentrations for the assays described in this report. Standard components are 1 mM DTT (Sigma, D0632), 1 mM MgCl2 (Sigma, M1028), 100 mM HEPES pH 7.5 (Calbiochem, 391338), 0.015% Brij-35 (Sigma, B4184).
The reaction is incubated for 90 min at 25 C, and then stopped by the addition of 70 ul of Stop buffer (100 mM HEPES pH 7.5, 0.015% Brij-35, 10 mM EDTA (Sigma, E7889)).
The plate is read on a Caliper LC 3000 in an Off-Chip mobility shift assay format, on a 12-sipper chip. Unphosphorylated substrate and phosphorylated product peptide resolve as separate peaks allowing direct measurement of percentage of conversion of substrate to product. The percent conversion can be plotted against concentration of inhibitor to produce a sigmoidal dose response curve, from which an IC50 can be calculated using GeneData Condoseo or a similar product. Cellular activity assays

The next test concerns the target T3, ZAP-70 (Homo sapiens, UniProt P43403).
T3 construct: purchased BPS Bioscience, CA, USA
T3 sequence (P43403 1-619): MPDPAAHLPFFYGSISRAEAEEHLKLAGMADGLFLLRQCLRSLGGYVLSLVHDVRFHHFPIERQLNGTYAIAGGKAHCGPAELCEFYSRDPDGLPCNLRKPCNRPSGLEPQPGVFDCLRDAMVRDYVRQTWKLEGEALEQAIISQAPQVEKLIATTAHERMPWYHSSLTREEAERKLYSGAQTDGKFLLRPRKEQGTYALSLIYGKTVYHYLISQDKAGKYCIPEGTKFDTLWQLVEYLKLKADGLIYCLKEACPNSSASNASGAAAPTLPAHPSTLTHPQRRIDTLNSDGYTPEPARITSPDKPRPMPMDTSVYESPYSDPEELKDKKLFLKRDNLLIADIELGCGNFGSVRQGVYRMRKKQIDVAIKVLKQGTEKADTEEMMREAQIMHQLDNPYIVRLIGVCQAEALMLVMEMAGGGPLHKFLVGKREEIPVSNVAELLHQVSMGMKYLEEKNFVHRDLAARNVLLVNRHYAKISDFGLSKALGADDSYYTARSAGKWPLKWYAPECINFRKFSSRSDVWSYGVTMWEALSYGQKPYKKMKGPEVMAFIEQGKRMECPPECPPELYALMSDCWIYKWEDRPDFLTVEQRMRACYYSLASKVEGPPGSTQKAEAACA
Nature of the test: Zap70 enzymatic assay (Caliper LifeSciences technology). The test is classed as biochemical. In a few lines: (§1)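 Off-chip mobility-shift assay quantifying conversion of a fluorescent peptide substrate to phosphorylated product. Reactions in 100 mM HEPES pH 7.5, 1 mM DTT, 1 mM MgCl2, 0.015% Brij-35, 90 min at 25 C, stopped with EDTA. IC50 from sigmoidal fit of percent conversion versus inhibitor concentration.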

In the next test the target is T4, KDR (Homo sapiens, UniProt P35968).
T4 construct: purchased BPS Bioscience, CA, USA
Nature of the test: KDR enzymatic assay (Caliper LifeSciences technology). The test is classed as biochemical. In a few lines: as §1

Another test addresses GCN2 (Homo sapiens, UniProt Q9P2K8). Nature of the test: GCN2 kinase TR-FRET (Lanthascreen) assay. The test is classed as biochemical. From the text:
GCN2: Assay Principle & Conditions
This assay can quantificate the activity of the serin kinase GCN2 (general control non-derepressible-2).
This kinase is involved in the stress metabolism of cells. It is activated upon starvation (amino acid depletion). Its natural substrate is eIF2a (eukaryotic initiation factor 2 alpha subunit), a translation factor, which gets activated (phosphorylated) by GCN2 in case of an amino acid bottleneck in the cells. This in turn leads to a halt of the protein synthesis. Inhibition of GCN2 results in stopping this mechanism: The cell can not stop protein production upon “starvation” stress.
The assay is run in two steps: the enzymatic reaction and the detection step. In the first step GCN2 is incubated with 10 μM ATP and 80 nM of the GFP-labelled substrate eIF2alpha at room temperature.
The enzymatic reaction is stopped by addition of EDTA. The amount of phosphorylated eIF2alpha is determined by TR-FRET (Lanthascreen): A complex is formed consisting of antibody and GFP labelled phospho-eIF2a, which allows a FRET upon exitation at 340 nm.
The GCN2-activity is directly proportional to the ratio of fluorescence units at the emission wavelengthh 520 nm (phosphopeptide-sensitive wavelength=emission of GFP) to the units at 495 nm (reference wavelength=emission of Terbium-chelate).
Assay Procedure • 4 uL enzyme solution (in assay buffer) • 1.5 uL compound (in cmpd dilution buffer/6.3% DMSO) • Incubation 20 min at RT • 4 uL substrate/ATP mix (in assay buffer) • Incubation 90 min at RT • 10 uL stop/detection mix (in antibody dilution buffer) • Incubation 60 min at RT • Readout Lanthascreen 340/495/5204

SMILES strings stand for the structures. Some results are limits rather than exact numbers.

Chain of GCN2 (Q9P2K8 whole entry, species assumed): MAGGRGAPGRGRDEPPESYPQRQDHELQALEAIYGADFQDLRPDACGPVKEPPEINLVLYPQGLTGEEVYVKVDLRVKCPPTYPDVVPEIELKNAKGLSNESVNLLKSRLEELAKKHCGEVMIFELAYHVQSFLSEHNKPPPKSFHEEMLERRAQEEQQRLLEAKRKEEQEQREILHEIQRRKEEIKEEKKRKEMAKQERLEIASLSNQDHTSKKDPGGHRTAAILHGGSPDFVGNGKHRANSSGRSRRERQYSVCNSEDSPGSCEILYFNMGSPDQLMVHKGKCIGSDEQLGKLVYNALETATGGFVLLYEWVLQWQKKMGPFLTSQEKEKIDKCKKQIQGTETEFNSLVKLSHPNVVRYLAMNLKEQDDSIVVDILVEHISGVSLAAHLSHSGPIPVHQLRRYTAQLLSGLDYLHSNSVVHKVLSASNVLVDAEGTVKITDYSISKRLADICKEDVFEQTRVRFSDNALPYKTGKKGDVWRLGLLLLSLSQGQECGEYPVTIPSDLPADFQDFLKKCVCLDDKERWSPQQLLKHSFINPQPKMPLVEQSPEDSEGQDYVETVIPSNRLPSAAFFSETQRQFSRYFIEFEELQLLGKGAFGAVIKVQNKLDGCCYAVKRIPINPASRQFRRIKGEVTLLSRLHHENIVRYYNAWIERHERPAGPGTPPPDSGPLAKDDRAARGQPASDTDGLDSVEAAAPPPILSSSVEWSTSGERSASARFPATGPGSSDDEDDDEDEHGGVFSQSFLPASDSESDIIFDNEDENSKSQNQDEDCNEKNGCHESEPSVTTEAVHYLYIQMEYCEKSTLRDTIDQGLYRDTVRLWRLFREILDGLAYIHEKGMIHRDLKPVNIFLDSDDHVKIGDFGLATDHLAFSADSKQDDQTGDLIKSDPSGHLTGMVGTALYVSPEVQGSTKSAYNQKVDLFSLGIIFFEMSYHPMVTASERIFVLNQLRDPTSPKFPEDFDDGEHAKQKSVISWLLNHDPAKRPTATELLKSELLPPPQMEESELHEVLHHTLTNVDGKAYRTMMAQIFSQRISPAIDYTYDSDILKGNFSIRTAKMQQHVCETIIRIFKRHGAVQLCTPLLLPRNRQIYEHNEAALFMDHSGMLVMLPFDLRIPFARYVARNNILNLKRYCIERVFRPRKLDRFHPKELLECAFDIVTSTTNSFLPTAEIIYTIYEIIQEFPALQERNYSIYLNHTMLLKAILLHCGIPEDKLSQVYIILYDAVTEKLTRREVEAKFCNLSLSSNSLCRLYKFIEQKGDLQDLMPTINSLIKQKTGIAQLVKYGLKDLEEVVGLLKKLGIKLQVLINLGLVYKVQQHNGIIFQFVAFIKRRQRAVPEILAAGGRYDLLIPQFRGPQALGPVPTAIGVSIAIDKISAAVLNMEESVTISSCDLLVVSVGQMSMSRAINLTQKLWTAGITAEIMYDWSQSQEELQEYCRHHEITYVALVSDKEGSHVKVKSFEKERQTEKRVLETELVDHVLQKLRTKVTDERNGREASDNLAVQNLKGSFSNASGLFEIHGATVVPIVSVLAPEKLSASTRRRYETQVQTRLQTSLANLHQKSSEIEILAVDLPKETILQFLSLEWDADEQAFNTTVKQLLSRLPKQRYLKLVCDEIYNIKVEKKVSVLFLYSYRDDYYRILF
T4 sequence (P35968 20-1356): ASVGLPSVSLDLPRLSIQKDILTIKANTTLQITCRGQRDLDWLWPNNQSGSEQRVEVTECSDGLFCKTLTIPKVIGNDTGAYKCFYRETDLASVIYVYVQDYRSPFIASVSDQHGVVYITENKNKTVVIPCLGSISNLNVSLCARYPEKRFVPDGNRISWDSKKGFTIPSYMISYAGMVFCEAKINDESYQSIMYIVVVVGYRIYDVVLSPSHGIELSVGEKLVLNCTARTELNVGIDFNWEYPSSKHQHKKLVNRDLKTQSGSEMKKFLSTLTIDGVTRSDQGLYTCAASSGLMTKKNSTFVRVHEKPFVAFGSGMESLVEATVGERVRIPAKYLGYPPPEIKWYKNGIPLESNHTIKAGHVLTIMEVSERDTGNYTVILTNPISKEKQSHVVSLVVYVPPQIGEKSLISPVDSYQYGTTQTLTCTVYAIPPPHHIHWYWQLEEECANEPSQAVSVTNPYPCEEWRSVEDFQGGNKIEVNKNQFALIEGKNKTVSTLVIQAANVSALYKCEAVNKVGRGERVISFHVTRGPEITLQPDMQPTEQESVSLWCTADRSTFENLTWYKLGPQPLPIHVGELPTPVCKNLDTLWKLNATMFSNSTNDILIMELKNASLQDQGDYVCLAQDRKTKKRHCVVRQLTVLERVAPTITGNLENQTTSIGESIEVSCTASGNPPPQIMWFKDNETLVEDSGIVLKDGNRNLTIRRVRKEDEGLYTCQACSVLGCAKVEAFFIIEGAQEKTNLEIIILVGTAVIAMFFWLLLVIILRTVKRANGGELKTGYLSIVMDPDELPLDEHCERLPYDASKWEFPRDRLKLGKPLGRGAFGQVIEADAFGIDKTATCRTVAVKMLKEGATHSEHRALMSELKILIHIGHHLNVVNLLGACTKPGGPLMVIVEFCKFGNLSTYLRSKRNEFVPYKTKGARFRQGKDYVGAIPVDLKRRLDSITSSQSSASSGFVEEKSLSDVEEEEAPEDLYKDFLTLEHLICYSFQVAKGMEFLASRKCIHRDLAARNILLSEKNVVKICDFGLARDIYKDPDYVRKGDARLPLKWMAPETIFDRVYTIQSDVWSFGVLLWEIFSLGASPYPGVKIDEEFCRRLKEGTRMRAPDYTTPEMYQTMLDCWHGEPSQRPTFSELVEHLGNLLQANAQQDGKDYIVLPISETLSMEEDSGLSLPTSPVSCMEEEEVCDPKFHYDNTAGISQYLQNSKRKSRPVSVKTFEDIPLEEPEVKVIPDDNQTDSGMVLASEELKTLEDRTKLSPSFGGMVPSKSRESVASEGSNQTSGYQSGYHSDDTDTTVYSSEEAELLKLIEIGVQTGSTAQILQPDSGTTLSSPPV
T2 sequence (P12931 whole entry): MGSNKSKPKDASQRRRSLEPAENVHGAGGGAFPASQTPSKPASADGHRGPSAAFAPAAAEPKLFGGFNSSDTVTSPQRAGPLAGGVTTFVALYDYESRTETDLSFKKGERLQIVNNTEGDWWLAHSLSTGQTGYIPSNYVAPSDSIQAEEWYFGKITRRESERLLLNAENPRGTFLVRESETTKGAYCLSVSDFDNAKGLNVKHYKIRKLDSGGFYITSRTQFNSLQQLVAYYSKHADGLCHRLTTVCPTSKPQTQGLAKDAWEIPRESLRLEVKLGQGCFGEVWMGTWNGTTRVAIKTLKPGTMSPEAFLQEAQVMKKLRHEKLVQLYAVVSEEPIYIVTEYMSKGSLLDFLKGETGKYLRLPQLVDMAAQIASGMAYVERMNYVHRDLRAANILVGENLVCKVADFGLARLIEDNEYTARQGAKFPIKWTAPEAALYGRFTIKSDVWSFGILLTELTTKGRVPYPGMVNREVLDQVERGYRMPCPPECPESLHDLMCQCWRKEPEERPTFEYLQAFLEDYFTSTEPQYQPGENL

Turning to `COc1cc(Nc2nc3c(-c4cccc(NS(C)(=O)=O)c4)nccn3n2)cc(OC)c1` [Example C272, N-{3-[2-(3,5-Dimethoxy-phenylamino)-[1,2,4]triazolo[1,5-a]pyrazin-8-yl]-phenyl}-methanesulfonamide], the IC50 was less than 300 nM on Syk; 3 to 50 µM in the test on Ramos cells; 300 to 3000 nM at Src; 0.3 to 3 µM against ZAP-70; less than 300 nM on KDR.
Consider `c1cc(-c2nccn3nc(Nc4ccc(N5CCOCC5)cc4)nc23)c2cc[nH]c2c1` [Example D10, [8-(1H-Indol-4-yl)-[1,2,4]triazolo[1,5-a]pyrazin-2-yl]-(4-morpholin-4-yl-phenyl)-amine], for which the IC50 at Syk is less than 300 nM; in the test with Ramos cells, 3 to 50 µM; on Src, less than 300 nM; against ZAP-70, 3 to 50 µM; at KDR, less than 300 nM.
Regarding `COc1cc(OC)cc(-c2nccn3nc(Nc4cc(C)cc(C)c4)nc23)c1` [Example E5], the IC50 against GCN2 was less than 10 µM.
As for `Cn1ccnc1Sc1ccc(Nc2nc3c(-c4ccccc4)nccn3n2)cc1Cl` [Example E7], the IC50 at GCN2 is less than 10 µM.
In the case of `CN1CCN(c2ccc(Nc3nc4c(-c5cnc6ccccc6c5)nccn4n3)cc2)CC1` [Example D23, [4-(4-Methyl-piperazin-1-yl)-phenyl]-(8-quinolin-3-yl-[1,2,4]triazolo[1,5-a]pyrazin-2-yl)-amine], the IC50 was less than 300 nM on Syk; 3 to 50 µM in the test with Ramos cells; less than 300 nM on Src; 3 to 50 µM on ZAP-70; 300 to 3000 nM at KDR.
As to `Cc1nc2cc(Nc3nc4c(-c5cnn(C)c5)nccn4n3)ccc2[nH]1` [Example D1, (2-Methyl-1H-benzoimidazol-5-yl)-[8-(1-methyl-1H-pyrazol-4-yl)-[1,2,4]triazolo[1,5-a]pyrazin-2-yl]-amine], the IC50 on Syk is less than 300 nM; in the test with Ramos cells, 3 to 50 µM; on Src, 300 to 3000 nM; at KDR it was 300 to 3000 nM.
With `COc1cc(Nc2nc3c(-c4ccccc4-c4ccccc4)nccn3n2)cc(OC)c1` [Example C284, (8-Biphenyl-2-yl-[1,2,4]triazolo[1,5-a]pyrazin-2-yl)-(3,5-dimethoxy-phenyl)-amine], the figures for the IC50 on Syk and with Ramos cells were less than 300 nM and 3 to 50 µM, respectively.
For the compound `CN1CCN(c2ccc(Nc3nc4c(-c5cnn(C)c5)nccn4n3)cc2)CC1` [Example D18, [4-(4-Methyl-piperazin-1-yl)-phenyl]-[8-(1-methyl-1H-pyrazol-4-yl)-[1,2,4]triazolo[1,5-a]pyrazin-2-yl]-amine], the IC50 was less than 300 nM at Syk; 3 to 50 µM in the test on Ramos cells; 300 to 3000 nM on Src; 3 to 50 µM against ZAP-70; 300 to 3000 nM against KDR.
For `c1cnc2cc(-c3nccn4nc(Nc5ccc(N6CCOCC6)cc5)nc34)ccc2c1` [Example C265, (4-Morpholin-4-yl-phenyl)-(8-quinolin-7-yl-[1,2,4]triazolo[1,5-a]pyrazin-2-yl)-amine], the IC50 was less than 300 nM at Syk; 3 to 50 µM in the test with Ramos cells; 300 to 3000 nM against Src; 0.3 to 3 µM on ZAP-70; less than 300 nM on KDR.
Consider `Cc1cc(C)cc(Nc2nc3c(-c4cccnc4)nccn3n2)c1` [Example E6], for which the IC50 on GCN2 is less than 10 µM.
Take `FC(F)(F)c1cccc(Nc2nc3c(-c4ccc(N5CCOCC5)cc4)nccn3n2)c1` [Example E3]: on GCN2, the IC50 is less than 10 µM.
Still for that read-out and setting: the value for `Cc1cccc(Nc2nc3c(-c4ccc(N5CCOCC5)cc4)nccn3n2)c1` [Example E4] was less than 10 µM.
Turning to `COc1cc(Nc2nc3c(-c4cccc(O)c4)nccn3n2)cc(OC)c1` [Example C268, 3-[2-(3,5-Dimethoxy-phenylamino)-[1,2,4]triazolo[1,5-a]pyrazin-8-yl]-phenol], the IC50 on Syk was less than 300 nM; with Ramos cells it was 3 to 50 µM; on Src it was 300 to 3000 nM; on ZAP-70, 0.3 to 3 µM; at KDR, less than 300 nM.
The compound `c1ccc(Cn2ncc3ccc(Nc4nc5c(-c6nccs6)nccn5n4)cc32)cc1` [Example E9] came in with an IC50 at GCN2 of less than 10 µM.
In the case of `c1ccc2ncc(-c3nccn4nc(Nc5ccc(N6CCOCC6)cc5)nc34)cc2c1` [Example C261], the IC50 at Syk was less than 300 nM; in the test on Ramos cells, 3 to 50 µM; against Src it was 300 to 3000 nM; on ZAP-70 it was 3 to 50 µM; on KDR it was less than 300 nM.
As to `c1ccc(Cn2ncc3ccc(Nc4nc5c(-c6ccccc6)nccn5n4)cc32)cc1` [Example E8], at GCN2, the IC50 is less than 10 µM.
Consider `CN1CCN(c2ccc(Nc3nc4c(-c5ccc6c(cnn6C)c5)nccn4n3)cc2)CC1` [Example D15, [8-(1-Methyl-1H-indazol-5-yl)-[1,2,4]triazolo[1,5-a]pyrazin-2-yl]-[4-(4-methyl-piperazin-1-yl)-phenyl]-amine], for which the IC50 was less than 300 nM at Syk; 3 to 50 µM with Ramos cells; 300 to 3000 nM against Src; 3 to 50 µM at ZAP-70; 300 to 3000 nM at KDR.
Regarding `NCc1cccc(-c2nccn3nc(Nc4ccc(N5CCOCC5)cc4)nc23)c1` [Example C253, [8-(3-Aminomethyl-phenyl)-[1,2,4]triazolo[1,5-a]pyrazin-2-yl]-(4-morpholin-4-yl-phenyl)-amine], the IC50 on Syk was less than 300 nM; in the test with Ramos cells, 3 to 50 µM; at Src, 300 to 3000 nM; at KDR, less than 300 nM.
`Cc1cc(C)cc(Nc2nc3c(-c4ccc(N5CCOCC5)cc4)nccn3n2)c1` [Example E2] gave an IC50 against GCN2 of less than 10 µM.
